{"source": "paper PMC3831706", "about": "(British Journal of Pharmacology, 2013)", "molecular_target": "T1, 5-HT3A receptor (Homo sapiens, UniProt P46098)", "T1 construct": "gene HTR3A", "T1 sequence (P46098 24-478)": "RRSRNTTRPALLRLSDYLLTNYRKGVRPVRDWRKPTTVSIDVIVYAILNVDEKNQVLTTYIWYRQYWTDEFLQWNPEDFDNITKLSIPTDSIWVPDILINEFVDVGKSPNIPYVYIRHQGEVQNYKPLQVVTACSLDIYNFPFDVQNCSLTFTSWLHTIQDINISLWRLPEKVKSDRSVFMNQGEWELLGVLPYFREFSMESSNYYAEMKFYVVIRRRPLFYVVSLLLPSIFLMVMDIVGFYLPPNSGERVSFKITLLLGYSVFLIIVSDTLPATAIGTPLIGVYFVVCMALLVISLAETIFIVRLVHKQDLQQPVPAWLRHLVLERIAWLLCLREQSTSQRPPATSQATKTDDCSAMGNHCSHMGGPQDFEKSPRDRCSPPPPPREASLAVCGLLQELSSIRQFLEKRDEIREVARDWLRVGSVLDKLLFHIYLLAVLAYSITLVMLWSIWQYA", "experiment": "cell-based", "data": [{"smiles": "O=C1c2cccc3c2[C@H](CCC3)CN1[C@@H]1CN2CCC1CC2", "note": "[PAL, palonosetron]", "values": [{"measurement": "Ki", "value": "0.22 ± 0.07", "unit": "nM"}]}]}
